Assays:
[1] = test system: HAP1 MTAP-intact cell line; assay: SDMA in-cell western assay, HAP1 MTAP-intact; assay type: cell-based; conditions: Homo sapiens
Protocol: (§1) Table 1 also indicates IC50 values in an MTAP-isogenic cell line pair for exemplary compounds in an SDMA in-cell western assay (columns 7-8). HAP1 MTAP-intact is a cell line in which endogenous levels of MTAP are expressed, and HAP1 MTAP-deleted is an MTAP-null cell line. For Table 1, “a*” and “aa*” indicates an IC50 of <1 μM, “b*” and “bb*” indicates an IC50 equal to or greater than 1 μM but less than 10 μM, and “c*” and “cc*” indicates an IC50 of greater than or equal to 10 μM in the HAP1 MTAP-intact and the HAP1 MTAP-deleted assays, respectively. In column 9, “A*” indicates an IC50 ratio greater than or equal to 10 fold between the IC50 in the HAP1 MTAP-intact cell line and the HAP1 MTAP-deleted cell line; “B*” indicates an IC50 ratio greater than or equal to 3 fold but lower than 10 fold between the IC50 in the HAP1 MTAP-intact cell line and the HAP1 MTAP-deleted cell line; “C*” indicates an IC50 ratio of less than 3 fold between the IC50 in the HAP1 MTAP-intact cell line and the HAP1 MTAP-deleted cell line. Compounds with a ratio in the SDMA in-cell western assay of equal to or greater than 3 fold are considered MTAP-selective.

[2] = test system: HAP1 MTAP-deleted cell line; assay: SDMA in-cell western assay, HAP1 MTAP-deleted; assay type: cell-based; conditions: for IC50: Homo sapiens, HAP1 MTAP-deleted (MTAP-null) cell line; for MTAP Intact/Deleted Ratio: IC50 ratio HAP1 MTAP-intact / HAP1 MTAP-deleted, >=3 fold considered MTAP-selective
Protocol: as §1

[3] = molecular target: T1, PRMT5 (Homo sapiens, UniProt O14744); assay: PRMT5 inhibition assay with SAM as cofactor; assay type: biochemical; conditions: against PRMT5 in the presence of SAM as cofactor
T1 construct: purchased Viva (custom protein)
Excerpt: (§2) The Ki values can be calculated from the IC50 values as described in the Examples section. As detailed in the Examples section, for the assay performed in the presence of SAM, IC50=Ki×1.5 (Ki=IC50/1.5). For the assay performed in the presence of MTA, IC50=Ki×13.5 (Ki=IC50/13.5). Column 6 indicates the ratio between the Ki of compounds in the presence of SAM and the Ki of compounds in the presence of MTA

[4] = molecular target: T1, PRMT5; assay: PRMT5 inhibition assay with no cofactor; assay type: biochemical; conditions: against PRMT5 with no cofactor; read-out: No Co-factor IC50
[5] = molecular target: T1, PRMT5; assay: PRMT5 inhibition assay with MTA as cofactor; assay type: biochemical; conditions: for IC50: against PRMT5 with MTA as cofactor; for SAM/MTA Ratio: ratio of Ki in the presence of SAM to Ki in the presence of MTA, Ki=IC50/1.5 (SAM), Ki=IC50/13.5 (MTA)
Excerpt: as §2

T1 sequence (O14744 whole entry): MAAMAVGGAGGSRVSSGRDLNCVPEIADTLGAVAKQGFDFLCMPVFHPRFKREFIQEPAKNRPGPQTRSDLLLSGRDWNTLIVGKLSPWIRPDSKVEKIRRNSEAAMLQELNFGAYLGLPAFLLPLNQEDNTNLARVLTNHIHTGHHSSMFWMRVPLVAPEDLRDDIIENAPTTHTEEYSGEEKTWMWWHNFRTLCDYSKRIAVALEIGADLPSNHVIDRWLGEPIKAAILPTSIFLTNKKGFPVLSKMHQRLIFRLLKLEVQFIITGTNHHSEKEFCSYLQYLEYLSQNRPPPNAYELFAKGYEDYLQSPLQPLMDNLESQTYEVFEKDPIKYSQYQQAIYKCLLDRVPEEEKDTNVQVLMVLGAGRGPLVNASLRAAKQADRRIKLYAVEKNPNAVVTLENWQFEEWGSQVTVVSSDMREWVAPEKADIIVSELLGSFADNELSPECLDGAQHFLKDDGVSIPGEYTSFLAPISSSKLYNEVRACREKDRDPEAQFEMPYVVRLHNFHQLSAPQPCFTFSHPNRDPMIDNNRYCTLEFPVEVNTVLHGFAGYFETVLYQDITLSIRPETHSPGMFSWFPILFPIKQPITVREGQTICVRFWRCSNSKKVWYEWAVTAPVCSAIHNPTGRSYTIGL
T1 sequence (Q9BQA1 whole entry partner): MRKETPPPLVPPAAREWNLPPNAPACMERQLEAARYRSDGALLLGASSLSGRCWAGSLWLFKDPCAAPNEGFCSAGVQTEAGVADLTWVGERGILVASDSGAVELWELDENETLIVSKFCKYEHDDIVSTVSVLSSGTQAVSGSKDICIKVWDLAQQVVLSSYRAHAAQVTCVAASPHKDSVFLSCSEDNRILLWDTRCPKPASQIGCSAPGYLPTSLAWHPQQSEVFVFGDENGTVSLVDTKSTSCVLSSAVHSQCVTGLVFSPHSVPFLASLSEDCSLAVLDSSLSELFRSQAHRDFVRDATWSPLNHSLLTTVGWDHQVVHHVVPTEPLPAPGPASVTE

Compound | IC50 [1] | IC50 [2] | MTAP Intact/Deleted Ratio [2] | IC50 [3] | IC50 [4] | IC50 [5] | SAM/MTA Ratio [5]
CC(=O)N1CC(Nc2cc(C(=O)NC[C@@H](O)[C@@H]3Cc4ccc(OCc5ocnc5C)cc4CN3)nc(N3CC4CCC(C4)C3)n2)C1 [Compound 56, 6-[(1-acetylazetidin-3-yl)amino]-2-(3-azabicyclo[3.2.1]octan-3-yl)-N-[(2R)-2-hydroxy-2-[(3S)-7-[(4-methyloxazol-5-yl)methoxy]-1,2,3,4-tetrahydroisoquinolin-3-yl]ethyl]pyrimidine-4-carboxamide] | 1000 to 10000 nM | < 1000 nM | A* (an IC50 ratio greater than or equal to 10 fold between the IC50 in the HAP1 MTAP-intact cell line and the HAP1 MTAP-deleted cell line) | 50 to 500 nM | 50 to 500 nM | < 50 nM | A (a Ki ratio greater than or equal to 10 fold between the Ki in the presence of SAM and the Ki in the presence of MTA)
Cc1ncoc1COc1ccc2c(c1)CN[C@H]([C@H](O)CNC(=O)c1cccc(-c3ccccn3)c1)C2 [Compound 25, N—((R)-2-hydroxy-2-((S)-7-((4-methyloxazol-5-yl)methoxy)-1,2,3,4-tetrahydroisoquinolin-3-yl)ethyl)-3-(pyridin-2-yl)benzamide] | ≥ 10000 nM | 1000 to 10000 nM | C* (an IC50 ratio of less than 3 fold between the IC50 in the HAP1 MTAP-intact cell line and the HAP1 MTAP-deleted cell line) | 50 to 500 nM | ≥ 5000 nM | 50 to 500 nM | A (a Ki ratio greater than or equal to 10 fold between the Ki in the presence of SAM and the Ki in the presence of MTA)
Cc1ncoc1COc1ccc2c(c1)CN[C@H]([C@H](O)CNC(=O)c1cc(NC3CC4(CCC4)C3)nc(N3CCCCC3)n1)C2 [Compound 57, N-[(2R)-2-hydroxy-2-[(3S)-7-[(4-methyloxazol-5-yl)methoxy]-1,2,3,4-tetrahydroisoquinolin-3-yl]ethyl]-2-(1-piperidyl)-6-(spiro[3.3]heptan-2-ylamino)pyrimidine-4-carboxamide] | 1000 to 10000 nM | < 1000 nM | A* (an IC50 ratio greater than or equal to 10 fold between the IC50 in the HAP1 MTAP-intact cell line and the HAP1 MTAP-deleted cell line) | 50 to 500 nM | 50 to 500 nM | 50 to 500 nM | A (a Ki ratio greater than or equal to 10 fold between the Ki in the presence of SAM and the Ki in the presence of MTA)
Cn1nccc1COc1ccc2c(c1)CN[C@H]([C@H](O)CNC(=O)c1ccc(C(=O)N3CCOCC3)cc1)C2 [Compound 2, N—((R)-2-hydroxy-2-((S)-7-((1-methyl-1H-pyrazol-5-yl)methoxy)-1,2,3,4-tetrahydroisoquinolin-3-yl)ethyl)-4-(morpholine-4-carbonyl)benzamide] | ≥ 10000 nM | ≥ 10000 nM | C* (an IC50 ratio of less than 3 fold between the IC50 in the HAP1 MTAP-intact cell line and the HAP1 MTAP-deleted cell line) | 50 to 500 nM | 500 to 5000 nM | 50 to 500 nM | A (a Ki ratio greater than or equal to 10 fold between the Ki in the presence of SAM and the Ki in the presence of MTA)
Cc1ncoc1COc1ccc2c(c1)CN[C@H]([C@H](O)CNC(=O)c1ccc(OC3CCN(Cc4ccncc4)CC3)cc1)C2 [Compound 23, N—((R)-2-hydroxy-2-((S)-7-((4-methyloxazol-5-yl)methoxy)-1,2,3,4-tetrahydroisoquinolin-3-yl)ethyl)-4-((1-(pyridin-4-ylmethyl)piperidin-4-yl)oxy)benzamide] | < 1000 nM | < 1000 nM | B* (an IC50 ratio greater than or equal to 3 fold but lower than 10 fold between the IC50 in the HAP1 MTAP-intact cell line and the HAP1 MTAP-deleted cell line) | 50 to 500 nM | 50 to 500 nM | < 50 nM | A (a Ki ratio greater than or equal to 10 fold between the Ki in the presence of SAM and the Ki in the presence of MTA)
Cc1ncoc1COc1ccc2c(c1)CN[C@H]([C@H](O)CNC(=O)c1ccnc(NC3CC4(CCC4)C3)c1)C2 [Compound 46, N-[(2R)-2-hydroxy-2-[(3S)-7-[(4-methyloxazol-5-yl)methoxy]-1,2,3,4-tetrahydroisoquinolin-3-yl]ethyl]-2-(spiro[3.3]heptan-2-ylamino)pyridine-4-carboxamide] | < 1000 nM | < 1000 nM | B* (an IC50 ratio greater than or equal to 3 fold but lower than 10 fold between the IC50 in the HAP1 MTAP-intact cell line and the HAP1 MTAP-deleted cell line) | 50 to 500 nM | 50 to 500 nM | < 50 nM | A (a Ki ratio greater than or equal to 10 fold between the Ki in the presence of SAM and the Ki in the presence of MTA)
CC(=O)N1CCN(c2cc(C(=O)NC[C@@H](O)[C@@H]3Cc4ccc(OCc5ocnc5C)cc4CN3)cc(NC3CCC3)n2)CC1 [Compound 29, 2-(4-acetylpiperazin-1-yl)-6-(cyclobutylamino)-N—((R)-2-hydroxy-2-((S)-7-((4-methyloxazol-5-yl)methoxy)-1,2,3,4-tetrahydroisoquinolin-3-yl)ethyl)isonicotinamide] | 1000 to 10000 nM | < 1000 nM | A* (an IC50 ratio greater than or equal to 10 fold between the IC50 in the HAP1 MTAP-intact cell line and the HAP1 MTAP-deleted cell line) | 50 to 500 nM | 50 to 500 nM | < 50 nM | A (a Ki ratio greater than or equal to 10 fold between the Ki in the presence of SAM and the Ki in the presence of MTA)
CCOc1cc(C(=O)N2C3CCC2COC3)ccc1C(=O)NC[C@@H](O)[C@@H]1Cc2ccc(OCc3ocnc3C)cc2CN1 [Compound 12, 4-(3-oxa-8-azabicyclo[3.2.1]octane-8-carbonyl)-2-ethoxy-N—((R)-2-hydroxy-2-((S)-7-((4-methyloxazol-5-yl)methoxy)-1,2,3,4-tetrahydroisoquinolin-3-yl)ethyl)benzamide] | < 1000 nM | < 1000 nM | B* (an IC50 ratio greater than or equal to 3 fold but lower than 10 fold between the IC50 in the HAP1 MTAP-intact cell line and the HAP1 MTAP-deleted cell line) | 50 to 500 nM | 500 to 5000 nM | 50 to 500 nM | A (a Ki ratio greater than or equal to 10 fold between the Ki in the presence of SAM and the Ki in the presence of MTA)
CCOc1nc(N2CCN(C(=O)OC)CC2)ccc1C(=O)NC[C@@H](O)[C@@H]1Cc2ccc(OCc3ccnn3C)cc2CN1 [Compound 18, methyl 4-(6-ethoxy-5-(((R)-2-hydroxy-2-((S)-7-((1-methyl-1H-pyrazol-5-yl)methoxy)-1,2,3,4-tetrahydroisoquinolin-3-yl)ethyl)carbamoyl)pyridin-2-yl)piperazine-1-carboxylate] | ≥ 10000 nM | < 1000 nM | A* (an IC50 ratio greater than or equal to 10 fold between the IC50 in the HAP1 MTAP-intact cell line and the HAP1 MTAP-deleted cell line) | 50 to 500 nM | 500 to 5000 nM | < 50 nM | A (a Ki ratio greater than or equal to 10 fold between the Ki in the presence of SAM and the Ki in the presence of MTA)
CCOc1cc(C(=O)N2C3CCC2COC3)ccc1C(=O)NC[C@@H](O)[C@@H]1Cc2ccc(OCc3cnco3)cc2CN1 [Compound 11, 4-(3-oxa-8-azabicyclo[3.2.1]octane-8-carbonyl)-2-ethoxy-N—((R)-2-hydroxy-2-((S)-7-(oxazol-5-ylmethoxy)-1,2,3,4-tetrahydroisoquinolin-3-yl)ethyl)benzamide] | 1000 to 10000 nM | < 1000 nM | B* (an IC50 ratio greater than or equal to 3 fold but lower than 10 fold between the IC50 in the HAP1 MTAP-intact cell line and the HAP1 MTAP-deleted cell line) | 50 to 500 nM | 500 to 5000 nM | 50 to 500 nM | A (a Ki ratio greater than or equal to 10 fold between the Ki in the presence of SAM and the Ki in the presence of MTA)
